Test results: patent US20230167105A1, “BCL-2 PROTEIN INHIBITORS” (Recurium IP Holdings, LLC, priority 2020, published 2023)

Tested on: MOLT-4 cells
Assay: MOLT-4 Cell Proliferation Assay (CellTiter-Glo)
Assay type: cell-based
Settings: Homo sapiens, 72 h, read-out: MOLT-4 CTG IC50
Procedure: Cell proliferation was measured using the CellTiter-Glo® Luminescent Cell Viability Assay. The assay involved the addition of a single reagent (CellTiter-Glo® Reagent) directly to cells cultured in serum-supplemented medium. MOLT-4 cells (ATCC, CRL-1582) were cultured according to ATCC recommendations and were seeded at 50,000 cells per well.
Each compound evaluated was prepared as a DMSO stock solution (10 mM). Compounds were tested in duplicate on each plate, with a 10-point serial dilution curve (1:3 dilution). The highest compound concentration was 10 μM (final), with a 0.1% final DMSO concentration. Plates were then incubated at 37° C., 5% CO2 for 72 h, cell plates were equilibrated at rt for approximately 30 mins. An equi-volume amount of CellTiter-Glo® Reagent (100 μL) was added to each well. Plates were mixed for 2 mins on an orbital shaker to induce cell lysis and then incubated at rt for 10 mins to stabilize the luminescent signal. Luminescence was recorded using a Envision plate reader according to CellTiter-Glo protocol. IC50 of each compound was calculated using GraphPad Prism by nonlinear regression analysis.

Compound	IC50
Cc1cc([C@H](C(=O)N2C[C@H](O)C[C@H]2C(=O)N[C@@H](CC(=O)NCCCCCC(=O)N2CCN(CC[C@H](CSc3ccccc3)Nc3ccc(S(=O)(=O)NC(=O)c4ccc(N5CCN(CC6=C(C78CC(C(F)F)(C7)C8)CC(C)(C)CC6)CC5)cc4)cc3S(=O)(=O)C(F)(F)F)CC2)c2ccc(-c3scnc3C)cc2)C(C)C)on1 [Example 50, (2S,4R)—N—((S)-3-((6-(4-((R)-3-((4-(N-(4-(4-((2-(3-(difluoromethyl)bicyclo[1.1.1]pentan-1-yl)-4,4-dimethylcyclohex-1-en-1-yl)methyl)piperazin-1-yl)benzoyl)sulfamoyl)-2-((trifluoromethyl)sulfonyl)phenyl)amino)-4-(phenylthio)butyl)piperazin-1-yl)-6-oxohexyl)amino)-1-(4-(4-methylthiazol-5-yl)phenyl)-3-oxopropyl)-4-hydroxy-1-((R)-3-methyl-2-(3-methylisoxazol-5-yl)butanoyl)pyrrolidine-2-carboxamide]	≥ 150 nM
CC1(C)CCC(CN2CCN(c3ccc(C(=O)NS(=O)(=O)c4ccc(N[C@H](CCN5CCN(CCCCCCNc6cccc7c6C(=O)N(C6CCC(=O)NC6=O)C7=O)CC5)CSc5ccccc5)c(S(=O)(=O)C(F)(F)F)c4)cc3)CC2)=C(C23CC(C(F)F)(C2)C3)C1 (stereo partly drawn) [Example 11, 4-[4-[[2-[3-(difluoromethyl)-1-bicyclo[1.1.1]pentanyl]-4,4-dimethyl-cyclohexen-1-yl]methyl]piperazin-1-yl]-N-[4-[[(1R)-3-[4-[6-[[2-(2,6-dioxo-3-piperidyl)-1,3-dioxo-isoindolin-4-yl]amino]hexyl]piperazin-1-yl]-1-(phenylsulfanylmethyl)propyl]amino]-3-(trifluoromethylsulfonyl)phenyl]sulfonyl-benzamide]	≥ 150 nM
CC1(C)CCC(CN2CCN(c3ccc(C(=O)NS(=O)(=O)c4ccc(N[C@H](CCN5CCN(CCCC#Cc6cccc7c6CN(C6CCC(=O)NC6=O)C7=O)CC5)CSc5ccccc5)c(S(=O)(=O)C(F)(F)F)c4)cc3)CC2)=C(C23CC(C(F)F)(C2)C3)C1 (stereo partly drawn) [Example 29, 4-(4-((2-(3-(difluoromethyl)bicyclo[1.1.1]pentan-1-yl)-4,4-dimethylcyclohex-1-en-1-yl)methyl)piperazin-1-yl)-N-((4-(((2R)-4-(4-(5-(2-(2,6-dioxopiperidin-3-yl)-1-oxoisoindolin-4-yl)pent-4-yn-1-yl)piperazin-1-yl)-1-(phenylthio)butan-2-yl)amino)-3-((trifluoromethyl)sulfonyl)phenyl)sulfonyl)benzamide]	≤ 50 nM
CC1(C)CCC(CN2CCN(c3ccc(C(=O)NS(=O)(=O)c4ccc(N[C@H](CCN5CCN(CCCCCNc6cccc7c6C(=O)N(C6CCC(=O)NC6=O)C7=O)CC5)CSc5ccccc5)c(S(=O)(=O)C(F)(F)F)c4)cc3)CC2)=C(C23CC(C)(C2)C3)C1 (stereo partly drawn) [Example 7, 4-(4-((4,4-dimethyl-2-(3-methylbicyclo[1.1.1]pentan-1-yl)cyclohex-1-en-1-yl)methyl)piperazin-1-yl)-N-((4-(((2R)-4-(4-(5-((2-(2,6-dioxopiperidin-3-yl)-1,3-dioxoisoindolin-4-yl)amino)pentyl)piperazin-1-yl)-1-(phenylthio)butan-2-yl)amino)-3-((trifluoromethyl)sulfonyl)phenyl)sulfonyl)benzamide]	50 to 150 nM
Cc1cc([C@@H](C(=O)N2C[C@H](O)C[C@H]2C(=O)N[C@@H](CC(=O)NCCCCCC(=O)N2CCN(CC[C@H](CSc3ccccc3)Nc3ccc(S(=O)(=O)NC(=O)c4ccc(N5CCN(CC6=C(C78CC(C(F)F)(C7)C8)CC(C)(C)CC6)CC5)cc4)cc3S(=O)(=O)C(F)(F)F)CC2)c2ccc(-c3scnc3C)cc2)C(C)C)on1 [Example 56, (2S,4R)—N—((S)-3-((6-(4-((R)-3-((4-(N-(4-(4-((2-(3-(difluoromethyl)bicyclo[1.1.1]pentan-1-yl)-4,4-dimethylcyclohex-1-en-1-yl)methyl)piperazin-1-yl)benzoyl)sulfamoyl)-2-((trifluoromethyl)sulfonyl)phenyl)amino)-4-(phenylthio)butyl)piperazin-1-yl)-6-oxohexyl)amino)-1-(4-(4-methylthiazol-5-yl)phenyl)-3-oxopropyl)-4-hydroxy-1-((S)-3-methyl-2-(3-methylisoxazol-5-yl)butanoyl)pyrrolidine-2-carboxamide]	≥ 150 nM

Further lines, results first:

IC50	Compound
≥ 150 nM	CC1(C)CCC(CN2CCN(c3ccc(C(=O)NS(=O)(=O)c4ccc(N[C@H](CCN5CCN(CCCCCc6cccc7c6C(=O)N(C6CCC(=O)NC6=O)C7=O)CC5)CSc5ccccc5)c(S(=O)(=O)C(F)(F)F)c4)cc3)CC2)=C(C23CC(C(F)F)(C2)C3)C1 (stereo partly drawn) [Example 22, 4-(4-((2-(3-(difluoromethyl)bicyclo[1.1.1]pentan-1-yl)-4,4-dimethylcyclohex-1-en-1-yl)methyl)piperazin-1-yl)-N-((4-(((2R)-4-(4-(5-(2-(2,6-dioxopiperidin-3-yl)-1,3-dioxoisoindolin-4-yl)pentyl)piperazin-1-yl)-1-(phenylthio)butan-2-yl)amino)-3-((trifluoromethyl)sulfonyl)phenyl)sulfonyl)benzamide]
≤ 50 nM	CC1(C)CCC(CN2CCN(c3ccc(C(=O)NS(=O)(=O)c4ccc(N[C@H](CCN5CCN(CCCNc6cccc7c6C(=O)N(C6CCC(=O)NC6=O)C7=O)CC5)CSc5ccccc5)c(S(=O)(=O)C(F)(F)F)c4)cc3)CC2)=C(C23CC(C(F)F)(C2)C3)C1 (stereo partly drawn) [Example 5, 4-[4-[[2-[3-(difluoromethyl)-1-bicyclo [1.1.1]pentanyl]-4,4-dimethyl-cyclohexen-1-yl]methyl]piperazin-1-yl]-N-[4-[[(1R)-3-[4-[3-[[2-(2,6-dioxo-3-piperidyl)-1,3-dioxo-isoindolin-4-yl]amino]propyl]piperazin-1-yl]-1-(phenylsulfanylmethyl)propyl]amino]-3-(trifluoromethylsulfonyl)phenyl]sulfonyl-benzamide]
50 to 150 nM	CC1(C)CCC(CN2CCN(c3ccc(C(=O)NS(=O)(=O)c4ccc(N[C@H](CCN5CCN(CCCCCNc6cccc7c6CN(C6CCC(=O)NC6=O)C7=O)CC5)CSc5ccccc5)c(S(=O)(=O)C(F)(F)F)c4)cc3)CC2)=C(C23CC(C(F)F)(C2)C3)C1 (stereo partly drawn) [Example 15, 4-[4-[[2-[3-(difluoromethyl)-1-bicyclo[1.1.1]pentanyl]-4,4-dimethyl-cyclohexen-1-yl]methyl]piperazin-1-yl]-N-[4-[[(1R)-3-[4-[5-[[2-(2,6-dioxo-3-piperidyl)-1-oxo-isoindolin-4-yl]amino]pentyl]piperazin-1-yl]-1-(phenylsulfanylmethyl)propyl]amino]-3-(trifluoromethylsulfonyl)phenyl]sulfonyl-benzamide]
50 to 150 nM	Cc1ncsc1-c1ccc([C@H](C)NC(=O)[C@@H]2C[C@@H](O)CN2C(=O)[C@@H](NC(=O)CCCCCCC(=O)N2CCN(CC[C@H](CSc3ccccc3)Nc3ccc(S(=O)(=O)NC(=O)c4ccc(N5CCN(CC6=C(C78CC(C(F)F)(C7)C8)CC(C)(C)CC6)CC5)cc4)cc3S(=O)(=O)C(F)(F)F)CC2)C(C)(C)C)cc1 [Example 23, (2S,4R)-1-((S)-2-(8-(4-((R)-3-((4-(N-(4-(4-((2-(3-(difluoromethyl)bicyclo[1.1.1]pentan-1-yl)-4,4-dimethylcyclohex-1-en-1-yl)methyl)piperazin-1-yl)benzoyl)sulfamoyl) ((trifluoromethyl)sulfonyl)phenyl)amino)-4-(phenylthio)butyl)piperazin-1-yl)-8-oxooctanamido)-3,3-dimethylbutanoyl)-4-hydroxy-N—((S)-1-(4-(4-methylthiazol-5-yl)phenyl)ethyl)pyrrolidine-2-carboxamide]
≤ 50 nM	CC1(C)CCC(CN2CCN(c3ccc(C(=O)NS(=O)(=O)c4ccc(N[C@H](CCN5CCN(CCCCc6ccc7c(c6)C(=O)N(C6CCC(=O)NC6=O)C7=O)CC5)CSc5ccccc5)c(S(=O)(=O)C(F)(F)F)c4)cc3)CC2)=C(C23CC(C(F)F)(C2)C3)C1 (stereo partly drawn) [Example 17, 4-(4-((2-(3-(difluoromethyl)bicyclo[1.1.1]pentan-1-yl)-4,4-dimethylcyclohex-1-en-1-yl)methyl)piperazin-1-yl)-N-((4-(((2R)-4-(4-(4-(2-(2,6-dioxopiperidin-3-yl)-1,3-dioxoisoindolin-5-yl)butyl)piperazin-1-yl)-1-(phenylthio)butan-2-yl)amino)-3-((trifluoromethyl)sulfonyl)phenyl)sulfonyl)benzamide]
≤ 50 nM	CC1(C)CCC(CN2CCN(c3ccc(C(=O)NS(=O)(=O)c4ccc(N[C@H](CCN5CCN(CCCNc6ccc7c(c6)C(=O)N(C6CCC(=O)NC6=O)C7=O)CC5)CSc5ccccc5)c(S(=O)(=O)C(F)(F)F)c4)cc3)CC2)=C(C23CC(C(F)F)(C2)C3)C1 (stereo partly drawn) [Example 12, 4-[4-[[2-[3-(difluoromethyl)-1-bicyclo[1.1.1]pentanyl]-4,4-dimethyl-cyclohexen-1-yl]methyl]piperazin-1-yl]-N-[4-[[(1R)-3-[4-[3-[[2-(2,6-dioxo-3-piperidyl)-1,3-dioxo-isoindolin-5-yl]amino]propyl]piperazin-1-yl]-1-(phenylsulfanylmethyl)propyl]amino]-3-(trifluoromethylsulfonyl)phenyl]sulfonyl-benzamide]
